Reference: BindingDB's records for doi:10.1016/j.bmcl.2011.10.052 (Rhône-Poulenc Rorer, 2011)

These compounds were tested against Dihydroorotate dehydrogenase (quinone), mitochondrial (Homo sapiens, UniProt Q02127) (assay: Inhibition of human dihydroorotate dehydrogenase).
Chain of Dihydroorotate dehydrogenase (quinone), mitochondrial (Q02127 whole entry): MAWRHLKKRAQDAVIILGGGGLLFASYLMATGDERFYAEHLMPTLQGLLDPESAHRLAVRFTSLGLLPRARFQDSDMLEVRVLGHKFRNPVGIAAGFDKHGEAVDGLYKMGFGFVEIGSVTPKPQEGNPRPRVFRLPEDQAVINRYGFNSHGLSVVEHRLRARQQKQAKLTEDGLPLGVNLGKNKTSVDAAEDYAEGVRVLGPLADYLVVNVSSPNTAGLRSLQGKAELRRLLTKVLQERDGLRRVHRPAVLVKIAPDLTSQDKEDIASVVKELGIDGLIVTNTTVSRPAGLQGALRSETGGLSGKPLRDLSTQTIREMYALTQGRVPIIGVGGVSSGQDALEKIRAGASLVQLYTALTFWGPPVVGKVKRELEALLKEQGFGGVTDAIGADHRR

Row | Structure (SMILES) | IC50
1 | CCC(=O)C(C#N)C(=O)Nc1ccc(-c2ccc3c(c2)OCCO3)c(C(=O)OC)c1 (configuration not stated) | 66 nM
2 | CCC(=O)C(C#N)C(=O)Nc1ccc(-c2cccc(OC3CCC3)c2)c(C(=O)OC)c1 (configuration not stated) | 31 nM
3 | CCC(=O)C(C#N)C(=O)Nc1ccc(OS(=O)(=O)C(F)(F)F)cc1 (configuration not stated) | 150 nM

Results, then the compound that gave them:

Row | IC50 | Structure (SMILES)
4 | 31 nM | CCC(=O)C(C#N)C(=O)Nc1ccc(-c2ccc(F)cc2F)c(C(=O)OC)c1 (configuration not stated)
5 | 66 nM | CCC(=O)C(C#N)C(=O)Nc1ccc(-c2ccc(F)cc2OC)c(C(=O)OC)c1 (configuration not stated)
6 | 31 nM | CCC(=O)C(C#N)C(=O)Nc1ccc(-c2cccc(Cl)c2)c(C(=O)OC)c1 (configuration not stated)
7 | 150 nM | CCC(=O)C(C#N)C(=O)Nc1ccc(-c2ccc(F)nc2)c(C(=O)OC)c1 (configuration not stated)
